Measured values from patent publication US20240342126A1, “HALLUCINOGEN-FATTY ACID COMBINATION” (Mindset Pharma Inc., priority 2021, published 2024).
Entries after “also recorded” stand apart in the source; their conditions may differ.

Legend:
C57BL/6J mice = test: Mouse head twitch experiments; type: in vivo; settings: for head twitch response of combination with linoleic acid vs test compound alone: equimolar dose of linoleic acid, SC; for effect on test compound-induced head twitches: M100907 0.5 mg/kg IP pretreatment
Description: Male, C57BL/6J mice (body weight range 20-30 g) were dosed with the appropriate dose(s) of test compound, or combination of test compounds, and following pre-treatment, the animals were placed in individual observation chambers. Animals were visually assessed for the incidence head twitches continuously over a 1 hr period. Head twitches were defined as a rapid jerk of the head which was not elicited by an external tactile stimulus (Corne S J, Pickering R W (1967) Psychopharmacologia 11 (1): 65-78). Each head twitch was individually counted by a trained observer, and the data expressed as the mean±SEM of 4-10 mice per group. In addition to the total number of head twitches recorded over the 1 hr observation period, head twitches were also scored according to each specific 10 min time bin within the 1 hr observation period (i.e. 0-10 min, 10-20 min, 20-30 min, etc).
Two types of experiments were conducted. In one, the effect of linoleic acid in combination with a test compound (psilocybin or 1-4) was studied. In these experiments, both test compounds, or saline control was injected subcutaneously (SC) 1 min prior to testing. […] In these experiments, M100907 (0.5 mg/kg IP) was injected 30 min prior to a single dose of test compound (i.e. psilocybin or I-4). […] 1 min following SC administration of the test compound, the mice were placed in the observation chambers for measurement of head twitch response.

human 5-HT2A = human 5-HT2A (Homo sapiens, UniProt P28223); settings: read-out: binding affinity 5-HT2A; cited from earlier work
[1] = Pharmacokinetics in plasma and CSF after i.n. or s.c. administration of 5-MeO-DMT formulations; settings: Sprague-Dawley, rat, plasma, iv, 1 mg/kg

human 5-HT2A, sequence (P28223 whole entry): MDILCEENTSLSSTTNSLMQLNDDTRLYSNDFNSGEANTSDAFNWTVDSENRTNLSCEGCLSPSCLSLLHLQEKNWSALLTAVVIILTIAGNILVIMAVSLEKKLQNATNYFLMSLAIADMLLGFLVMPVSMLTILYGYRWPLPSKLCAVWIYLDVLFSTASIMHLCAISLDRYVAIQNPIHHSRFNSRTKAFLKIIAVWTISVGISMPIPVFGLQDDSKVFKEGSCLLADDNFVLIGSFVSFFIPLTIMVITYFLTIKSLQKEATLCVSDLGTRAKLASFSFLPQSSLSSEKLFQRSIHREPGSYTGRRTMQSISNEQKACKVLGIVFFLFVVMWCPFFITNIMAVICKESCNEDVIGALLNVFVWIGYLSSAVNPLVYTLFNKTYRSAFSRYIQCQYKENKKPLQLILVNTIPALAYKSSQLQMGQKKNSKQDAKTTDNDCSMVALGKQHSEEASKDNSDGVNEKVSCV

CCCCC/C=C\C/C=C\CCCCCCCC(=O)O [linoleic acid]
head twitches over 1 hr (mean±SEM) (C57BL/6J mice; linoleic acid alone 10 mg/kg SC): 1.0±0.7
head twitches relative to vehicle (C57BL/6J mice; linoleic acid alone 0.1-10 mg/kg SC): did not induce head twitches to a significant degree; also recorded: no significant effect

[2H]C([2H])([2H])N(C([2H])([2H])[2H])C([2H])([2H])C([2H])([2H])c1c[nH]c2cccc(O)c12 [Compound I-4, 3-(2-(bis(methyl-d3)amino)ethyl-1,1,2,2-d4)-1H-indol-4-ol]
head twitches over 1 hr (mean±SEM) (C57BL/6J mice; 0.3 mg/kg SC + linoleic acid at […] SC): 7.8±0.6
head twitches over 1 hr (mean±SEM) (C57BL/6J mice; 0.3 mg/kg SC + vehicle): 3.3±0.8
head twitch response of combination with linoleic acid vs test compound alone (C57BL/6J mice): more head twitches
head twitch response of combination with linoleic acid vs test compound alone (C57BL/6J mice; listed as 1-4): greater head twitch response

CN(C)CCc1c[nH]c2ccccc12 [DMT, N,N-dimethyltryptamine]
Ki (human 5-HT2A): 237 nM

COc1cccc([C@H](O)C2CCN(CCc3ccc(F)cc3)CC2)c1OC [Compound M100907, reference compound]
effect on test compound-induced head twitches (C57BL/6J mice; head twitches induced by I-4 6.2 mg/kg SC): completely blocked
effect on test compound-induced head twitches (C57BL/6J mice; head twitches induced by psilocybin 3 mg/kg SC): completely blocked

COc1ccc2[nH]cc(CCN(C)C)c2c1 [Compound 5-MeO-DMT, 5-methoxy-N,N-dimethyltryptamine]
AUC(0-inf) [1]: 35.3 ng·h/mL
